The text below walks through data of US20230303556A1, “PIPERAZINE SUBSTITUTED INDAZOLE COMPOUNDS AS INHIBITORS OF PARG” (IDEAYA BIOSCIENCES, INC., priority 2022, published 2023).

SMILES strings stand for the structures. In brackets after ≈: the same amount, converted by molar mass. Like-named read-outs stand apart in the source and are kept apart here. Bounds are passed on as bounds.

For one data set, the system named is RMUGS-NucLight Red cells. Kind of data set: Cellular viability assay, RMUGS-NucLight Red. Type of data set: cell-based. To be noted: 168 h, 7 days incubation, geometric mean. The protocol: (§1) The ability of the compounds disclosed herein to inhibit PARG was determined in the following two cell lines: RMUGS-NucLight Red and SNU601-NucLight Red. RMUGS-NucLight Red and SNU601-NucLight Red cells were generated by stably transducing parental cells (RMUGS-JCRB Cell Bank, Cat no: IF050320; SNU601-Korean Cell Line Bank, Cat no:00601) with Incucyte® NucLight Red lentivirus (Sartorius, Cat no: 4476). Described below are the protocols followed for both the cell lines.
(§2) The cells were plated at 1000 cells/well in a 96-well black plate with clear flat bottom. After 24 hours, the plates were imaged using the Incucyte® S3 Live-Cell Analysis system and the number of live cells in each well (Day 0) was counted. Test compounds were then added by Tecan digital dispenser to generate a 9 point dose curve with a 3 fold dilution and 10 uM top concentration. All treatments were done in duplicates. After 7 days of incubation, the plates were imaged using the Incucyte® S3 system and the number of live cells per well (Day 7) was counted. For every well on the plate, the live cell counts on day 7 was normalized to the cell counts from day 0 (Day 7/Day 0). Average values of DMSO treated wells in a plate were calculated. All the data points were normalized to that of the average DMSO value. The % of control for each sample was compared to DMSO treated control samples. EC5 values were calculated in Collaborative Drug Discovery vault (CDD). Curves were fitted by CDD as % of control vs. log [compound concentration] using a 4-parameter inhibition model (Levenberg-Marquardt algorithm):
(§3) Fit=(A+((B−A)/(1+((C/x)^D))))

The nature of data set [1]: Kinetic solubility in PBS pH 2.0 and pH 7.4. Type of data set: physicochemical. To be noted: aqueous buffer, kinetic from dmso stock, * n <3 runs. Here is the method:
• Control compound diclofenac sodium (LOT #BCBW9128) was purchased from Sigma Chemical Co. • 1.5 mL glass flat bottom vials (BioTech Solutions) • Molded PTFE/SIL plugs (BioTech Solutions) • PTFE encapsulated stir stick (V&P Scientific) • MultiScreenHTS HV (0.45 μm) 96 well plate (Millipore, MSHVN4510 or MSHVN4550) • Eppendorf Thermomixer Comfort • Vacuum Manifold ORVMN96. • PBS pH 2.0 and pH 7.4 was prepared in our laboratory
• diclofenac sodium (LOT #BCBW9128), Sigma Chemical Co.
• 1. Preparation of stock solutions. The stock solutions of test compounds and control compound diclofenac sodium were prepared in DMSO at the concentration of 30 mM and 10 mM, respectively. • 2. Procedure for solubility determination. 10 μL of stock solutions (30 mM) of test compounds was placed in order into their proper 96-well rack, 20 μL of DMSO and 970 μL of PBS pH 2.0 or pH 7.4 was added into each vial of the cap-less Solubility Sample plate; 30 μL of stock solution (10 mM) of control compound was placed in order into its proper 96-well rack, 970 μL of PBS pH 2.0 or pH 7.4 was added into each vial of the cap-less Solubility Sample plate. The assay was performed in duplicate. One stir stick was added to each vial and seal using a molded PTFE/Silicone plug. Then the Solubility Sample plate was transferred to the Eppendorf Thermomixer Comfort plate shaker and shaken at 25° C. at 1100 RPM for 24 hours. After completion of the 24 hours, plugs were removed and the stir sticks were removed using a big magnet, the samples from the Solubility Sample plate were transferred into the filter plate. Using the Vacuum Manifold, all the samples were filtered. Aliquot of 10 μL was taken from the filtrate followed by addition of 990 μL of a mixture of H2O and acetonitrile (1:1 in v/v). 200 μL of diluent was transferred to a new 96-well plate for LC-MS/MS analysis. The dilution factor was changed according to the solubility values and the LC-MS signal response. • 3. Preparation of 3 μM standards (STD). From the 10 mM or 30 mM DMSO STD plate, 15 μL or 5 μL was transferred into the remaining empty plate, and then 485 μL or 495 μL of DMSO was added to that plate to have a STD concentration of 300 μM. From the 300 μM DMSO STD plate, 5 μL was transferred into the remaining empty plate, and then 495 μL of a mixture of H2O and acetonitrile (1:1 in v/v) was added to that plate to have a final STD concentration of 3 μM. 200 μL of diluent was transferred to a new 96-well plate for LC-MS/MS analysis. The concentrations of the standard samples were changed according to the LC-MS signal response. • 4. Procedure for sample analysis. The plate was placed into the well plate autosampler. The samples were evaluated by LC-MS/MS analysis.

A further data set deals with hPARG (Homo sapiens (Human), UniProt Q86W56). The experiment in a line: Inhibition of PARG enzymatic assay (TR-FRET). To be noted: geometric mean; 1 hr compound/enzyme pre-incubation. It counts as biochemical. Here is the method: PARG enzyme was incubated with compound or vehicle (DMSO) and the biotinylated-PARylated PARP-1 substrate in a microtiter plate. After adding detection antibody and streptavidin-europium, and then incubating, the plate was read for fluorescence intensity. The low control (DMSO) with low fluorescence intensity represents no inhibition of enzymatic activity, while the high control (no enzyme) with high fluorescence intensity represents full inhibition of enzymatic activity.
Sequence of hPARG (Q86W56 whole entry): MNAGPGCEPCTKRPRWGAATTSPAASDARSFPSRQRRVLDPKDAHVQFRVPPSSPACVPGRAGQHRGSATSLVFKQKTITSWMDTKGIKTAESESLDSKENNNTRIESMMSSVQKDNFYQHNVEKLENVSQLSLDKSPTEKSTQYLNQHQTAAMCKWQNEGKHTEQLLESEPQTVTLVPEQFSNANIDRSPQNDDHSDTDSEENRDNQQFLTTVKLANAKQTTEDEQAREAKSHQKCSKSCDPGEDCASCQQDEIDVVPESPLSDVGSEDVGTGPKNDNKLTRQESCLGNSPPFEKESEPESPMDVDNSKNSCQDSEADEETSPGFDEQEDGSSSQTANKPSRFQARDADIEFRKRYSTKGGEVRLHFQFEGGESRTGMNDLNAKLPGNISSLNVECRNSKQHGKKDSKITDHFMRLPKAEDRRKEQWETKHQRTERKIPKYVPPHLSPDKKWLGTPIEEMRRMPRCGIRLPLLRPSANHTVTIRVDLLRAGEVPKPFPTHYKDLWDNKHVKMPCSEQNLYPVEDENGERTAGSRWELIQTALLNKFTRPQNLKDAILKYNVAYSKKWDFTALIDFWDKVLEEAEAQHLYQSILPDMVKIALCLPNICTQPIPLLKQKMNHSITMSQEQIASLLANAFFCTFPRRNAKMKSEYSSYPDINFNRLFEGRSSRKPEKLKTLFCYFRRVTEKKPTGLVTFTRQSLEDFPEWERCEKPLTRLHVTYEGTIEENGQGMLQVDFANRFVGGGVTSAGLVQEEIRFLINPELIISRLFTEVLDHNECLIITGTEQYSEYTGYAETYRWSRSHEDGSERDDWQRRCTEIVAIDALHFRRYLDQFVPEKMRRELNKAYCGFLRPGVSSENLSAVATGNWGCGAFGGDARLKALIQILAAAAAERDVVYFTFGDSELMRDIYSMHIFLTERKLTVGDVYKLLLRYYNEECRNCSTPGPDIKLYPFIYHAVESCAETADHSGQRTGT
• 0% inhibition: DMSO • 100% inhibition: No enzyme Enzyme reaction and Detection: • 1. Transfer 200 nL of 100× compound or DMSO to the appropriate wells of a 384 well white polystyrene microtitre plate (Corning Catalog #3574). • 2. Transfer 10 uL of 2× final concentration of enzyme in assay buffer or assay buffer alone to the appropriate wells. • 3. Centrifuge the plate at 1000 rpm for 30 seconds. • 4. Incubate the plate at room temperature for 1 hour. • 5. Transfer 10 uL of 2× substrate in assay buffer to all test wells. • 6. Incubate the plate at room temperature for 10 minutes • 7. Transfer 10 uL of 3× mixture of 42 nM detection antibody and 2.25 nM streptavidin-europium in 50 mM Tris-HCL pH 7.4 to all test wells. • 8. Incubate the plate at room temperature for 1 hour. • 9. Read the plate on a plate reader (Envision) • Excitation: 317 nm • Emission: 620 nm • Emission: 665 nm
EC50 values were calculated in Collaborative Drug Discovery vault (CDD). Curves were fitted by CDD as response (%) vs compound concentration (uM) using a 4-parameter inhibition model using Formula 1.
as §3
In general terms: In TR-FRET formats the signal depends on donor and acceptor labels being close together.

Data set [2] concerns SNU601-NucLight Red cells. The experiment in a line: Cellular viability assay, SNU601-NucLight Red. It counts as cell-based. To be noted: SNU-601, 168 h, 7 days incubation, geometric mean. Here is the method: as §1
as §2, with “200” for “1000”, “384-well” for “96-well”, “triplicates.” for “duplicates.”, “EC50” for “EC5”
as §3
When clear bi-phasic behavior was observed on the resulting data the EC50 was calculated in GraphPad Prism Software for the major fraction of the response using the following formula:
Section1=Span*Frac/(1+10^((Log EC50_1−X)*nH1))
Section2=Span*(1−Frac)/(1+10^((Log EC50_2−X)*nH2))

[3] abbreviates: PBS pH 2.0, 25° C., read-out: Kinetic Solubility pH 2.0.
Setting [4] is: PBS pH 7.4, 25° C., read-out: Kinetic Solubility pH 7.4.

As a reminder, the EC50 is the midpoint of the concentration-response curve. Low readings indicate a more potent agent, high ones a less potent agent. Broadly, the solubility (kinetic) is the concentration staying in solution when a stock, usually in DMSO, is diluted into the medium. As for `C[C@@H]1CN(c2cc(S(=O)(=O)NC3(C#N)CC3)cc3c2cnn3-c2nnc(C(F)F)s2)CCN1C(=O)N(C)C`, the concentration for a half-maximal effect (EC50) turned out to be 60 nM in the data set with RMUGS-NucLight Red cells, 9.9 nM on hPARG and 84 nM in data set [2]. The solubility (kinetic) at 24 h in data set [1] (setting [3]) was 7.2 µM (≈ 4.07 µg/mL); in data set [1] (setting [4]) it was 14 µM (≈ 7.92 µg/mL).
The matching figures for `CN(C)C(=O)N1CCN(c2cc(S(=O)(=O)NC3(C#N)CC3)cc3c2cnn3-c2nnc(C(F)F)s2)CC1`: 49 nM, 6.6 nM, 81 nM, 1 µM (≈ 0.552 µg/mL) and 1.4 µM (≈ 0.772 µg/mL).
The matching figures for `C[C@H]1CN(c2cc(S(=O)(=O)NC3(C#N)CC3)cc3c2cnn3-c2nnc(C(F)F)s2)CCN1C(=O)N(C)C`: 77 nM, 14 nM, 110 nM, 7.8 µM (≈ 4.41 µg/mL) and 14 µM (≈ 7.92 µg/mL).
The corresponding values for `CC(C)C(=O)N1CCN(c2cc(S(=O)(=O)NC3(C#N)CC3)cc3c2cnn3-c2nnc(C(F)F)s2)C[C@@H]1C` are 137 nM, 76 nM, 184 nM, 3.4 µM (≈ 1.92 µg/mL) and 8 µM (≈ 4.52 µg/mL).
In the case of `CN(C)C(=O)N1CCN(c2cc(S(=O)(=O)NC3(C)CC3)cc3c2cnn3-c2nnc(C(F)F)s2)CC1`, the half-maximal effective concentration (EC50) in the data set on RMUGS-NucLight Red cells stood at 8.3 nM; on hPARG it was 7.3 nM; in data set [2], 36 nM. In addition, the values for the kinetic solubility at 24 h in data set [1] (setting [3]) and in data set [1] (setting [4]) were 0.2 µM (≈ 0.108 µg/mL) and 0.3 µM (≈ 0.162 µg/mL), respectively.
The corresponding values for `C[C@@H]1CN(c2cc(S(=O)(=O)NC3(C)CC3)cc3c2cnn3-c2nnc(C(F)F)s2)C[C@H](C)N1` are 11 nM, 15 nM, 27 nM, 271 µM (≈ 135 µg/mL) and 31 µM (≈ 15.4 µg/mL).
The matching figures for `CC(C)C(=O)N1CCN(c2cc(S(=O)(=O)NC3(C#N)CC3)cc3c2cnn3-c2nnc(C(F)F)s2)C[C@H]1C`: 75 nM, 39 nM, 146 nM, 2.1 µM (≈ 1.19 µg/mL) and 5.6 µM (≈ 3.16 µg/mL).
The matching figures for `C[C@@H]1CN(c2cc(S(=O)(=O)NC3(C)CC3)cc3c2cnn3-c2nnc(C(F)F)s2)C[C@@H](C)N1`: 32 nM, 51 nM, 89 nM, 261 µM (≈ 130 µg/mL) and 41 µM (≈ 20.4 µg/mL).
With `CC(C)C(=O)N1[C@H](C)CN(c2cc(S(=O)(=O)NC3(C#N)CC3)cc3c2cnn3-c2nnc(C(F)F)s2)C[C@@H]1C`, the EC50 with RMUGS-NucLight Red cells is 101 nM; at hPARG, 79 nM; in data set [2], 178 nM. In addition, the solubility (kinetic) at 24 h in data set [1] (setting [3]) and in data set [1] (setting [4]) was < 0.03 µM each time.
With `CC(C)C(=O)N1CCN(c2cc(S(=O)(=O)NC3(C#N)CC3)cc3c2cnn3-c2nnc(C(F)F)s2)CC1`, the EC50 is 64 nM with RMUGS-NucLight Red cells, 19 nM on hPARG and 104 nM in data set [2]. Besides, the solubility (kinetic) at 24 h turned out to be 1.1 µM (≈ 0.606 µg/mL) in data set [1] (setting [3]) and 2.1 µM (≈ 1.16 µg/mL) in data set [1] (setting [4]).
For the compound `CN1CCN(c2cc(S(=O)(=O)NC3(C#N)CC3)cc3c2cnn3-c2nnc(C(F)F)s2)CC1`, the EC50 in the data set on RMUGS-NucLight Red cells came to 439 nM; at hPARG, 201 nM; in data set [2], 1580 nM. Further, the solubility (kinetic) at 24 h turned out to be 289 µM (≈ 143 µg/mL) in data set [1] (setting [3]) and 2.7 µM (≈ 1.34 µg/mL) in data set [1] (setting [4]).
The matching figures for `C[C@H]1CN(c2cc(S(=O)(=O)NC3(C)CC3)cc3c2cnn3-c2nnc(C(F)F)s2)C[C@H](C)N1` [drawing 29]: 4.2 nM, 1.9 nM, 11 nM, 282 µM (≈ 140 µg/mL) and 42 µM (≈ 20.9 µg/mL).
The matching figures for `Cc1nnc(-n2ccc3ccc(S(=O)(=O)NC4(C)CC4)cc32)s1`: > 10000 nM, > 10000 nM, > 10000 nM, 29 µM (≈ 10.1 µg/mL) and 24 µM (≈ 8.36 µg/mL).
